Patent publication US20110021623A1, “SYSTEM AND METHODS OF MELANOMA PREVENTION” (Regents of the University of New Mexico, priority 2006, published 2011)
Where two headings read alike, the source gives them in different places.

What was measured:
[1] = system: mouse melanocyte cell line (B16); assay: DNA adduct assay (13C tyrosine enrichment, isotope ratio mass spectrometry); assay type: cell-based; details: B16 cells, 300 μM PTU immediately after 20 min full spectrum UV, 5 μM 13C tyrosine 1 hour after UV, DNA isolated after 4 hours
Protocol: FIG. 4 is a graph illustrating a DNA adduct assay. Mouse melanocyte cell line (B16) was incubated with 300 μM phenylthiourea (PTU) immediately after ultraviolet (UV) radiation exposure. After 20 minutes of full spectrum ultraviolet (UV) radiation exposure, 5 μM ^13C tyrosine was added 1 hour after ultraviolet (UV) radiation exposure. After 4 hours, DNA was isolated and adducts determined as an increase in ^13C enrichment over baseline after combustion and isotope ratio mass spectrometry.

[2] = system: mouse melanocyte cell line (B16); assay: Melanocyte survival by trypan blue exclusion after solar simulated UV exposure; assay type: cell-based; details: for Melanocyte survival (viability) in ultraviolet (UV) exposed cells: 20 min solar simulated UV (~15 MEDS), increasing doses of inhibitor after exposure, trypan blue exclusion 24 hours after UV
Protocol: FIG. 3 is a graph illustrating death of melanocytes with tyrosinase inhibitors applied subsequent to ultraviolet (UV) radiation exposure. The graph illustrates results from a study conducted with mice melanocyte cell line (B16). The mouse melanocyte cell line (B16) was exposed to solar simulated ultraviolet (UV) radiation for 20 minutes. The solar ultraviolet (UV) radiation was simulated using a 300 W Xe solar simulator, equivalent to approximately 15 Minimal Erythemal Doses (MEDS), or equivalent to strong sunburn. After ultraviolet (UV) radiation exposure, cells were treated with increasing doses of the following tyrosinase inhibitors: kojic acid (shown in FIG. 3A) and methyl gentisate (shown in FIG. 3B). Melanocyte survival was determined by trypan blue exclusion 24 hours after ultraviolet (UV) radiation exposure. It was shown that there was no effect of tyrosinase inhibitors on the survival in non-ultraviolet (UV) exposed cells (not shown in FIG. 3). […] Preventing quinones from passing out of the melanosome substantially protects melanocytes from DNA damage.

NC(=S)Nc1ccccc1 [PTU, phenylthiourea]
DNA adducts (13C enrichment over baseline, delta value) [1]: greatly decreases DNA adducts

O=c1cc(CO)occ1O [kojic acid]
Melanocyte survival (viability) in ultraviolet (UV) exposed cells ([2]; B16 cells): dose dependent increase in viability | Melanocyte survival in non-ultraviolet (UV) exposed cells ([2]; B16 cells, no UV exposure, trypan blue exclusion): no effect

COC(=O)c1cc(O)ccc1O [methyl gentisate]
Melanocyte survival in non-ultraviolet (UV) exposed cells [2]: no effect | Melanocyte survival (viability) in ultraviolet (UV) exposed cells ([2]; B16 cells): dose dependent increase in viability
